Results on six compounds are retold here after PMC11649380 (Inorganic chemistry, 2022).

A short description of data set [1]: Aquation kinetics of axial ligand dissociation by 1H NMR spectroscopy. It counts as physicochemical. To be noted: for k1 × 10^5 (first aquation rate constant) / k2 × 10^4 (second aquation rate constant): 37 °C, pH 7.4 MOPS-buffered solution, 400 μM complex, 1H NMR; for half-life: mops buffer, pH 7.4.
The target in data set [2] is T1, mitochondrial calcium uniporter (MCU) (Homo sapiens, UniProt Q8NE86).
T1 sequence (Q8NE86 51-351): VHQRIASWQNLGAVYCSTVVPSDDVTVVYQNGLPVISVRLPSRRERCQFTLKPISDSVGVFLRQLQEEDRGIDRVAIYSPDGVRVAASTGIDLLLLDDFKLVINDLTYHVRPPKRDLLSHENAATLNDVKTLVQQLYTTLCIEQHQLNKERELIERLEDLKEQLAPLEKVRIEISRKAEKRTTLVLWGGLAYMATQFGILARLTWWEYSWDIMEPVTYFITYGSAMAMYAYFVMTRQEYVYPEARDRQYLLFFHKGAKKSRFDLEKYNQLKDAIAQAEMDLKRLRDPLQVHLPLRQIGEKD
T1 sequence (Q9H4I9 48-107 partner limits assumed): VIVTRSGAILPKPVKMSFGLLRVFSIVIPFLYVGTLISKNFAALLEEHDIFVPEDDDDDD
The experiment in a line: Mitochondrial Ca2+ uptake inhibition in digitonin-permeabilized HEK293T cells. It counts as cell-based.

The test system of another data set is HEK293T cells. Kind of data set: Cellular uptake by GFAAS in HEK293T cells. In kind it is cell-based. To be noted: 50 μM for 2 h.
The conditions of data set [3]: ref [51], cited from earlier work.
The next data set deals with HeLa cells. The experiment in a line: Cellular uptake by GFAAS in HeLa cells. It counts as cell-based. To be noted: 50 μM for 2 h.
Data set [4] addresses T2, organic cation transporter 3 (OCT3) (Homo sapiens, UniProt O75751).
T2 sequence (O75751 1-556): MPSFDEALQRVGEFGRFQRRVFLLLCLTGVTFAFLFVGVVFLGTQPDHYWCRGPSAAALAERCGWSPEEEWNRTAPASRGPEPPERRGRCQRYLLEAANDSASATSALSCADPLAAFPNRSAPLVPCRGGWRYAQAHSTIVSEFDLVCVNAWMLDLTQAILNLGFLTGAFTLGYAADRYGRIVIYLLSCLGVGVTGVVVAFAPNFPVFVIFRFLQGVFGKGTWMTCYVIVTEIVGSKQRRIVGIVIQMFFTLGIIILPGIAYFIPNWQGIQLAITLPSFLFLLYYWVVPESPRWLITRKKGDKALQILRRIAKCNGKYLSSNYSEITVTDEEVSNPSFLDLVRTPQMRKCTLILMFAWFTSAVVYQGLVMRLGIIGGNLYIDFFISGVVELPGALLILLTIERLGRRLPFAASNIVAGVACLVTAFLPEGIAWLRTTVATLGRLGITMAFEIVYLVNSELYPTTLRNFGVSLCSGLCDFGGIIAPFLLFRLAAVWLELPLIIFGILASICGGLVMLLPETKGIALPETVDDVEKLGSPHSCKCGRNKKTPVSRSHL
The experiment in a line: Role of OCT3 in cellular uptake. In kind it is cell-based. To be noted: HeLa, 50 μM complex, 1 μM decynium-22, 3 h.

Data set [5] addresses T1, mitochondrial calcium uniporter (MCU). As to conditions: read-out: IC50 of MCU-mediated mCa2+ uptake inhibition; permeabilized HEK293T cells (1 × 10^7 cells/mL); ref [46]; cited from earlier work.

Each structure is given as a SMILES string. Read-outs that look alike come from different tables or passages of the source.

As a reminder, the half-life is how long it takes for the measured level to halve. As for `N.N.N.N.N.N.N.N.O=C[O-].O=C[O-].[N-3].[Ru+4].[Ru+4]` [Complex 1, [(HCO2)Ru(NH3)4(μ-N)Ru(NH3)4(O2CH)](NO3)3], in data set [1], the “k1 × 10^5 (first aquation rate constant)” value is reported as 5.9 ± 0.2 s^−1, the “k2 × 10^4 (second aquation rate constant)” value came to 3.6 ± 0.3 s^−1 and the half-life is 3.3 ± 0.1 h.
The corresponding values for `CC(=O)[O-].CC(=O)[O-].N.N.N.N.N.N.N.N.[N-3].[Ru+4].[Ru+4]` [Complex 2, [(CH3CO2)Ru(NH3)4(μ-N)Ru(NH3)4(O2CCH3)](NO3)3] are 2.0 ± 0.5 s^−1, 3.0 ± 1.2 s^−1 and 9.9 ± 2.4 h.
For `CCC(=O)[O-].CCC(=O)[O-].N.N.N.N.N.N.N.N.[N-3].[Ru+4].[Ru+4]` [Complex 3, [(CH3CH2CO2)Ru(NH3)4(μ-N)Ru(NH3)4(O2CCH2CH3)](NO3)3], in data set [1], the “k1 × 10^5 (first aquation rate constant)” value was determined as 2.8 ± 0.1 s^−1, the “k2 × 10^4 (second aquation rate constant)” value worked out at 3.3 ± 0.5 s^−1 and the half-life is 6.9 ± 0.2 h.
The IC50 is the midpoint of a concentration-inhibition curve. Take `CCCC(=O)[O-].CCCC(=O)[O-].N.N.N.N.N.N.N.N.[N-3].[Ru+4].[Ru+4]` [Complex 4, [(CH3(CH2)2CO2)Ru(NH3)4(μ-N)Ru(NH3)4(O2C(CH2)2CH3)](OSO2CF3)3]: in data set [1], the “k1 × 10^5 (first aquation rate constant)” value is 3.2 ± 0.1 s^−1, the “k2 × 10^4 (second aquation rate constant)” value is on record as 2.8 ± 0.2 s^−1 and the half-life was 5.9 ± 0.2 h. For the same compound, the IC50 in data set [2] was 18.7 ± 0.1 nM.
Consider `N.N.N.N.N.N.N.N.[Cl][Ru+3].[N-]=[Ru][Cl]` [Ru265, [ClRu(NH3)4(μ-N)Ru(NH3)4Cl]Cl3], for which the “cellular uptake (intracellular Ru accumulation)” value in the data set with HEK293T cells and with HeLa cells was “taken up by both cell lines to a similar extent” in each case. For the same compound, the “t1/2 (1) (half-life of first aquation step)” value in data set [3] (37 °C, UV-vis spectroscopy) was 2.28 min. For the same compound, the “k1 × 10^5 (first aquation rate constant)” value in data set [3] (37 °C, determined using UV-vis spectroscopy, first aquation step only) is listed as 49.2 s^−1. In data set [3] (same conditions (pH 7.4, 37 °C)), the “half-life of aquation of axial chloride ligands” value is listed as “approximately 2 min”. Besides, the “cellular uptake in the presence of the OCT3 inhibitor decynium-22” value in data set [4] is reported as “diminished in the presence of the OCT3 inhibitor”. For the same compound, the “mCa2+ uptake at 1 μM” value in data set [2] (freshly prepared 1 μM solutions, permeabilized HEK293T cells) is on record as “complete abrogation of mCa^2+ uptake”.
Regarding `N.N.N.N.N.N.N.N.[Cl][Ru+3].[NH]=[Ru][Cl]` [Ru265, [ClRu(NH3)4(μ-N)Ru(NH3)4Cl]Cl3], the IC50 in data set [5] was 8.6 ± 2.2 nM.
